The term IC50 denotes the concentration needed to halve the response being measured. As a reminder, the inhibition is the change of the read-out against control, counted positive when it falls. Higher therefore signals strong suppression.

Here are results for one molecule from patent publication US6562828B1, “Amidine compounds” (Japan Tobacco Inc., priority 1998, dated 2003).

The structures appear in SMILES notation. Counter-ions that a name gives are not always drawn. Bounds are passed on as bounds.

In test [1] the target is T1, Human FXa (Homo sapiens, UniProt P00742).
T1 construct: Human FXa [Enzyme research Laboratories (USA)] enzyme; purchased Enzyme Research Laboratories (USA)
Nature of the test: Determination of anti-factor Xa (FXa) activity, synthetic substrate S-2222. Type of test: biochemical. As to conditions: S-2222, 37° C., pH 8.4, read-out: Experimental Example 1: anti-FXa activity, IC50. Here is the method: Determination of Anti-factor Xa (FXa) Activity
Human FXa [Enzyme research Laboratories (USA)] enzyme (40 μl, 0.16U/ml) and test compounds (40 l) adjusted to various concentrations were incubated in 0.1M Tris (Tris-hydroxymethyl-aminomethane) buffer (pH 8.4) containing 0.2M sodium chloride (herein to be referred to as 0.1 M tris-0.2M NaCl buffer) (40 μl) at 37° C. for 10 min. A synthetic substrate S-2222 (Daiichi Pure Chemical (Tokyo, Japan), 40 μl) adjusted to 0.8 mM was added and the mixture was incubated at 37° C. for 10 min. The reaction was stopped by addition of 60% acetic acid (40 μl) and absorbance at 405 nm was measured by Model 3550 (BIO-RAD). For the control, the solvent was used instead of the test compound.
Target sequence in this assay (P00742 235-488 limits assumed): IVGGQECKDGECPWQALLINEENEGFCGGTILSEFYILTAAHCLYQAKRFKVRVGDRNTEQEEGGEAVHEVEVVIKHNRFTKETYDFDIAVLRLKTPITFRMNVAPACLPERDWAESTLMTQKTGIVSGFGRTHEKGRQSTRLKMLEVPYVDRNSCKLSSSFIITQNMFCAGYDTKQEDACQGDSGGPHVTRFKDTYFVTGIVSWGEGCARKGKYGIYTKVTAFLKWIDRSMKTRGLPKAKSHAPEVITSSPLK
Target sequence in this assay (P00742 41-179 partner limits assumed): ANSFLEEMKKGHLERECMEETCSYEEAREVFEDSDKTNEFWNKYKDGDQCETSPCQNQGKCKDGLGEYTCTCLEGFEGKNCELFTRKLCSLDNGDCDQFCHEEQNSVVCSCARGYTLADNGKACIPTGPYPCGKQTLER

Test [2] has as its target T2, Human FIIa (Homo sapiens, UniProt P00734).
T2 construct: purchased Sigma
Put plainly: Determination of anti-factor IIa (FIIa) activity, synthetic substrate S-2238. Format: biochemical. As to conditions: S-2238, 37° C., pH 8.4, read-out: Experimental Example 2: anti-FIIa activity, IC50.

Test [3] has as its system normal plasma. Put plainly: Determination of prothrombin time (PT), mouse plasma. Type of test: biochemical. Here is the method:
(§1) Determination of prothrombin time (PT)
(§2) Blood was taken from mouse, rat, crab-eating monkey and healthy human volunteers, and citric acid was added. The blood was centrifuged at 4° C. and 2000 G for 15 min to obtain normal plasma of various animals.
(§3) Purified water (5 μl) containing various concentrations of test compound was added to plasma (45 μl) and the resultant mixtures were used as samples. […] (Baxter) was prepared and heated at […] for 5 min, and a sample (50 μl) was admixed with the thrombin reagent (100 μl). The time (PT) until precipitation of fibrin was measured. The drug concentration that doubled the PT hours of the drug untreated group was calculated and taken as CT2.

Test [4] relates to normal plasma. Put plainly: Determination of prothrombin time (PT), rat plasma. Format: biochemical. Here is the method: as §1, §2, §3
Test [5] deals with normal plasma. Put plainly: Determination of prothrombin time (PT), human plasma. Format: biochemical. As for the experimental part:
as §1, §2, §3

For test [6], the target named is T1, Human FXa. Nature of the test: Intravenous administration test in monkey, human FXa inhibitory activity in plasma. As to conditions: crab-eating monkey, i.v., mean ± S.D., n = 3. Format: in vivo. As for the experimental part: (§4) Human FXa inhibitory activity was measured as follows. Human FXa [Enzyme research Laboratories (USA)] enzyme (40 μl, 0.5 U/ml) and a 4-fold diluted plasma sample (40 μl) were incubated in 0.1M Tris-0.2M NaCl buffer (pH 8.4) (40 μl) at 37° C. for 10 min. A synthetic substrate S-2222 (Daiichi Pure Chemical (Tokyo, Japan), 40 μl) adjusted to 0.8 mM was added and the mixture was incubated at 37° C. for 5 min. The reaction was stopped by addition of 60% acetic acid (40 μl) and absorbance at 405 nm was measured by Model 3550 (BIO-RAD). For the control, serum or plasma obtained prior to blood sampling was used for measurement. Human FXa inhibitory activity was calculated as inhibition percentage (%) against control.
Intravenous Administration Tests in Monkey
A test compound dissolved in physiological saline was intravenously administered to monkey (crab-eating monkey, body weight 3.5-4.5 kg) and the activity of the test compound was evaluated based on the human FXa inhibitory activity in plasma as an indicator.
At 10, 30, 60, 120, 180 min from the intravenous administration, blood was taken from the saphenous vein with the passage of time and the blood was centrifuged at 2000 G for 10 min. The obtained citric acid plasma was used for the determination. Human FXa inhibitory activity was determined in the same manner as in the test using mouse.
Target sequence in this assay (P00742 235-488 limits assumed): as the sequence (P00742 235-488 limits assumed) above
Target sequence in this assay (P00742 41-179 limits assumed): as the sequence (P00742 41-179 partner limits assumed) above

Test [7] deals with T1, Human FXa. Put plainly: Oral administration test in mouse, human FXa inhibitory activity in serum. Type of test: in vivo. As to conditions: ICR mice, mean ± S.D., n = 3. As for the experimental part: as §4
Oral Administration Tests in Mouse
A test compound dissolved in distilled water was orally administered to ICR mice (body weight 20-30 g, 4-6 weeks old) and the activity of the test compound was evaluated based on the human FXa inhibitory activity in serum as an indicator.
At 30, 60, 120, 180 min from the oral administration, blood was taken from the eye ground using a hematocrit tube. The blood was centrifuged at 9000 G for 5 min and the obtained serum was used for the determination. Human FXa inhibitory activity was determined in the same manner as in the test by intravenous administration.
Target sequence in this assay (P00742 235-488 limits assumed): as the sequence (P00742 235-488 limits assumed) above
Target sequence in this assay (P00742 41-179 limits assumed): as the sequence (P00742 41-179 partner limits assumed) above

Test [8] concerns decrease of platelets and formation of FDP by thromboplastin. Nature of the test: Blood coagulation model in rat (thromboplastin). Format: in vivo. As to conditions: i.v. 10 min before thromboplastin, mean ± S.D, n = 3; for PLT value: counted 10 min later; for FDP value: measured 30 min later. As for the experimental part: Blood Coagulation Model in Rat
Intravenous administration of thromboplastin (Sigma) to rat promotes coagulation system, which in turn decreases platelets and increases fibrin degradation product (FDP). Thus, the test compound was intravenously administered 10 min before thromboplastin administration and the inhibitory effects of the test compound on the decrease of platelets and the formation of FDP by thromboplastin were studied. The thromboplastin administered had such concentration as to form clots within 20 seconds from the addition of one plasma dose to two thromboplastin doses and was administered in 1 ml/kg dose. Platelets were counted (PLT value) 10 min later on a blood cell counter sysmex F-800 [Dade International Inc. (USA)], and FDP was measured 30 min later using FDP latex reagent for serum [Teikoku Hormone Mfg. Co., Ltd. (Tokyo, Japan)]. In every Example, the PLT value of the thromboplastin untreated group was (106±13)×10^4 and the FDP value of this group was 0±0 μg/ml.

With `CC(=N)N1CCC(Oc2ccc(N(Cc3nc4cc(C(=N)N)ccc4n3CC(=O)N[C@@H](C)c3ccccc3)C(=O)c3ccc(C(=O)O)cc3)cc2)CC1` [Example 17, (S)-4-[N-[5-Amidino-1-(1-phenylethylcarbamoylmethyl)benzimidazole-2-ylmethyl]-N-[4-(1-acetimidoylpiperidin-4-yloxy)phenyl]carbamoyl]benzoic Acid Dihydrochloride], the IC50 in test [1] was 3 nM; in test [2], over 10000 nM. In addition, the “CT2 (drug concentration that doubled the PT)” value in test [3] turned out to be 2 µM; in test [4], 2 µM; in test [5] it was 0.5 µM. The inhibition at 1 mg/kg was 90 ± 6% in test [6] (10 minutes); 90 ± 1% in test [6] (30 minutes); 86 ± 2% in test [6] (60 minutes); 77 ± 6% in test [6] (120 minutes); 65 ± 12% in test [6] (180 minutes). Also, the inhibition at 10 mg/kg in test [7] (30 minutes) is 46 ± 3%; in test [7] (60 minutes), 34 ± 7%; in test [7] (120 minutes) it was 20%; in test [7] (180 minutes), 21 ± 5%. Moreover, the PLT value in test [8] (dose 0.01 mg/kg) is given as 41 ± 13 ×10^4 blood platelet/μl; in test [8] (dose 0.03 mg/kg) it was 92 ± 11 ×10^4 blood platelet/μl; in test [8] (dose 1 mg/kg), 108 ± 6 ×10^4 blood platelet/μl. Further, the FDP value came out at 6 ± 3 µg/mL in test [8] (dose 0.01 mg/kg), 1 ± 1 µg/mL in test [8] (dose 0.03 mg/kg) and 0 ± 0 µg/mL in test [8] (dose 1 mg/kg).
